# Values joined by “and” are separate entries in the source; they are usually repeats but may differ in a detail not shown here. Equal entries are not always repeated. Where a SMILES comes first, the peptide text is derived from it.
# System: lipase
# Assay: Lipase/lipolysis assay (EnzChek Lipase Substrate, quenched BODIPY-fatty acid conjugate) on stored human milk; note: test concentration or dose not given here
row,Compound,Lipase (RFU)
1,NC(=O)[C@@H]1CCCN1C(=O)[C@H](Cc1ccccc1)NC(=O)[C@@H]1CCCN1C(=O)[C@@H](N)Cc1ccc(O)cc1 [Morphiceptin] (H-YPFP-NH2),1251.045 RFU
2,C[C@@H]1CCCCCCCCCCCCC(=O)C1 [Muscone],696.5228 RFU
3,CC(=O)c1c(C)c([N+](=O)[O-])c(C(C)(C)C)c([N+](=O)[O-])c1C [Musk ketone],777.5201 RFU
4,c1cncc(C2=NCCC2)c1 [Myosmine],909.737 RFU
5,C=CCc1cc(OC)c2c(c1)OCO2 [Myristicin],960.4671 RFU
6,CC(=O)NCCCCNCCCN.Cl.Cl [N8-Acetylspermidine dihydrochloride],781.9265 RFU
7,"CC(=O)N[C@H]1[C@H](O[C@H]2[C@H](O)[C@@H](NC(C)=O)C(O)O[C@@H]2CO)O[C@H](CO)[C@@H](O[C@@H]2O[C@H](CO)[C@@H](O)[C@H](O)[C@H]2NC(C)=O)[C@@H]1O (stereo partly drawn) [N,N′,N″-Triacetylchitotriose]",1143.03 RFU
8,CC(=O)N[C@@H](CO)[C@@H](O)[C@H](O)[C@H](O)CO [N-Acetyl-D-Glucosaminitol],1055.486 RFU
9,COc1cc(/C=C/C(=O)NCC(O)c2ccc(O)cc2)ccc1O (stereo not drawn) [N-Feruloyloctopamine],893.4142 RFU
10,COc1cc(/C=C/C(=O)NCCc2c[nH]c3ccc(O)cc23)ccc1O [N-Feruloylserotonin],1060.876 RFU
11,O=C(/C=C/c1ccc(O)cc1)NCCc1ccc(O)cc1 [N-p-trans-Coumaroyltyramine],1082.731 RFU
12,NC(=O)c1ccc[n+]([C@@H]2O[C@H](COP(=O)([O-])OP(=O)(O)OC[C@H]3O[C@@H](n4cnc5c(N)ncnc54)[C@H](O)[C@@H]3O)[C@@H](O)[C@H]2O)c1 [NAD+],662.6014 RFU
13,NC(=O)C1=CN([C@@H]2O[C@H](COP(=O)([O-])OP(=O)([O-])OC[C@H]3O[C@@H](n4cnc5c(N)ncnc54)[C@H](O)[C@@H]3O)[C@@H](O)[C@H]2O)C=CC1.[Na+].[Na+] [NADH (disodium salt)],996.9696 RFU
14,NC(=O)c1ccc[n+]([C@@H]2O[C@H](COP(=O)([O-])OP(=O)(O)OC[C@H]3O[C@@H](n4cnc5c(N)ncnc54)[C@H](OP(=O)([O-])[O-])[C@@H]3O)[C@@H](O)[C@H]2O)c1.[Na+].[Na+] [NADP (disodium salt)],762.8961 RFU
15,NC(=O)c1ccc[n+]([C@@H]2O[C@H](COP(=O)([O-])OP(=O)(O)OC[C@H]3O[C@@H](n4cnc5c(N)ncnc54)[C@H](OP(=O)(O)O)[C@@H]3O)[C@@H](O)[C@H]2O)c1 [NADP],1113.421 RFU
16,CCN(CC)CCOC(=O)C(Cc1cccc2ccccc12)CC1CCCO1.O=C(O)C(=O)O (stereo not drawn) [Naftidrofuryl (oxalate)],1022.029 RFU
17,O=C(/C=C/c1ccc(O)c(O)c1)O[C@@H]1C[C@@](O)(C(=O)O)C[C@@H](O)[C@@H]1O [Neochlorogenic acid],1024.869 RFU
18,COc1ccc(-c2cc(=O)c3c(O)cc(O[C@@H]4O[C@H](CO)[C@@H](O)[C@H](O)[C@H]4O[C@@H]4O[C@@H](C)[C@H](O)[C@@H](O)[C@H]4O)cc3o2)cc1O [Neodiosmin],928.3945 RFU
19,C[C@@H]1O[C@@H](O[C@H]2[C@H](Oc3cc(O)c4c(c3)O[C@H](c3ccc(O)c(O)c3)CC4=O)O[C@H](CO)[C@@H](O)[C@@H]2O)[C@H](O)[C@H](O)[C@H]1O [Neoeriocitrin],1015.344 RFU

row,Compound,Lipase (RFU)
1,COc1c(CC=C(C)C)c(O)cc2oc(=O)c3c4ccc(O)cc4oc3c12 [Neoglycyrol],923.0229 RFU
2,COc1ccc([C@@H]2CC(=O)c3c(O)cc(O[C@@H]4O[C@H](CO)[C@@H](O)[C@H](O)[C@H]4O[C@@H]4O[C@@H](C)[C@H](O)[C@@H](O)[C@H]4O)cc3O2)cc1O [Neohesperidin],774.0784 RFU
3,O=C(/C=C/c1ccc(O)cc1)c1ccc(O[C@@H]2O[C@H](CO)[C@@H](O)[C@H](O)[C@H]2O)cc1O [Neoisoliquiritin],789.3461 RFU
4,O=C1C[C@@H](c2ccc(O)cc2)Oc2cc(O[C@@H]3O[C@H](CO)[C@@H](O)[C@H](O)[C@H]3O)ccc21 [Neoliquiritin],772.4579 RFU
5,COC(=O)[C@H](Cc1ccccc1)NC(=O)[C@H](CC(=O)O)NCCC(C)(C)C [Neotame],994.7737 RFU
6,COc1c(O)cc2oc(-c3ccc(O)c(O)c3)cc(=O)c2c1O [Nepetin],666.0077 RFU
7,CC(=O)NCCCC[C@H](N)C(=O)O [Nepsilon-Acetyl-L-lysine],1188.891 RFU
8,C[C@@H]1O[C@@H](OC[C@H]2O[C@@H](Oc3c(-c4ccc(O)cc4)oc4cc(O)cc(O)c4c3=O)[C@H](O)[C@@H](O)[C@@H]2O)[C@H](O)[C@H](O)[C@H]1O [Nicotiflorin],810.1075 RFU
9,NC(=O)c1ccc[n+]([C@@H]2O[C@H](CO)[C@@H](O)[C@H]2O)c1.[Cl-] [Nicotinamide riboside (chloride)],991.823 RFU
10,N[C@@H](CCC(=O)N[C@@H](CSN=O)C(=O)NCC(=O)O)C(=O)O [Nitrosoglutathione],688.3783 RFU
11,CC(C)(O)[C@H]1Cc2cc3ccc(=O)oc3cc2O1 [Nodakenetin],882.2828 RFU
12,CC(=O)O[C@H]1CC(=O)OC(C)(C)[C@@H]2CC(=O)[C@]3(C)[C@H](CC[C@@]4(C)[C@H](c5ccoc5)OC(=O)[C@H]5O[C@]543)[C@@]12C [Nomilin],989.5541 RFU
13,CCCCCCCCC(=O)NCc1ccc(O)c(OC)c1 [Nonivamide],911.9923 RFU and 1070.28 RFU
14,c1ccc2c(c1)[nH]c1cnccc12 [Norharmane],960.1337 RFU
15,COc1cc2c(cc1O)C[C@@H]1NCCc3cc(OC)c(O)c-2c31 [Norisoboldine],812.7907 RFU
16,CC(C)=CCC[C@](C)(O[C@@H]1O[C@H](CO[C@@H]2O[C@H](CO)[C@@H](O)[C@H](O)[C@H]2O)[C@@H](O)[C@H](O)[C@H]1O)[C@H]1CC[C@]2(C)[C@@H]1[C@H](O)C[C@@H]1[C@@]3(C)CC[C@H](O[C@@H]4O[C@H](CO)[C@@H](O)[C@H](O)[C@H]4O[C@@H]4O[C@H](CO)[C@@H](O)[C@H](O)[C@H]4O[C@@H]4OC[C@@H](O)[C@H](O)[C@H]4O)C(C)(C)[C@@H]3CC[C@]12C [Notoginsenoside Fa],1075.493 RFU
17,CC(C)=CCC[C@](C)(O[C@@H]1O[C@H](CO[C@@H]2OC[C@@H](O)[C@H](O)[C@H]2O)[C@@H](O)[C@H](O)[C@H]1O)[C@H]1CC[C@]2(C)[C@@H]1[C@H](O)C[C@@H]1[C@@]3(C)CC[C@H](O[C@@H]4O[C@H](CO)[C@@H](O)[C@H](O)[C@H]4O[C@@H]4O[C@H](CO)[C@@H](O)[C@H](O)[C@H]4O[C@@H]4OC[C@@H](O)[C@H](O)[C@H]4O)C(C)(C)[C@@H]3CC[C@]12C [Notoginsenoside Fc],1131.911 RFU
18,CC(C)=CCC[C@](C)(O[C@@H]1O[C@H](CO)[C@@H](O)[C@H](O)[C@H]1O)[C@H]1CC[C@]2(C)[C@@H]1[C@H](O)C[C@@H]1[C@@]3(C)CC[C@H](O)C(C)(C)[C@@H]3[C@@H](O[C@@H]3O[C@H](CO)[C@@H](O)[C@H](O)[C@H]3O[C@@H]3OC[C@@H](O)[C@H](O)[C@H]3O)C[C@]12C [Notoginsenoside R1],899.6021 RFU
19,CC(C)=CCC[C@](C)(O)[C@H]1CC[C@]2(C)[C@@H]1[C@H](O)C[C@@H]1[C@@]3(C)CC[C@H](O)C(C)(C)[C@@H]3[C@@H](O[C@@H]3O[C@H](CO)[C@@H](O)[C@H](O)[C@H]3O[C@@H]3OC[C@@H](O)[C@H](O)[C@H]3O)C[C@]12C [Notoginsenoside R2],955.4855 RFU

row,Compound,Lipase (RFU)
1,Cn1cc(C(N)=O)ccc1=O [Nudifloramide],993.1021 RFU
2,"C[N+](C)(C)CCCC[C@H](N)C(=O)O [Nε,Nε,Nε-Trimethyllysine (chloride)]",1143.924 RFU
3,CC(C(=O)c1ccc(O)cc1O)c1ccc(O)cc1 (stereo not drawn) [O-Desmethylangolensin],864.3847 RFU
4,NCCOP(=O)(O)O [O-Phosphoryl-Ethanolamine],1247.866 RFU
5,CC(CCC1(O)OC2CC3C4CCC5CC(OC6OC(CO)C(O)C(O)C6OC6OC(CO)C(O)C(O)C6O)CCC5(C)C4CCC3(C)C2C1C)COC1OC(CO)C(O)C(O)C1O (stereo not drawn) [Officinalisinin I],937.9671 RFU
6,CCCCCCCC/C=C\CCCCCCCC(=O)O[C@H](CC(=O)[O-])C[N+](C)(C)C [Oleoylcarnitine],870.8673 RFU
7,O=c1cc(-c2ccc(O)c(O)c2)oc2c([C@@H]3O[C@H](CO)[C@@H](O)[C@H](O)[C@H]3O)c(O)cc(O)c12 [Orientin],715.9231 RFU
8,"CCCCCCCCCCC[C@@H](C[C@@H]1OC(=O)[C@H]1CCCCCC)OC(=O)[C@H](CC(C)C)NC=O [Orlistat, reference compound]",234.506 RFU
9,CC(C)=CCc1c(O)ccc2ccc(=O)oc12 [Osthenol],798.6222 RFU
10,C[C@@H]1O[C@@H](O[C@H]2C[C@@H](O)[C@]3(CO)[C@H]4[C@H](O)C[C@]5(C)[C@@H](C6=CC(=O)OC6)CC[C@]5(O)[C@@H]4CC[C@]3(O)C2)[C@H](O)[C@H](O)[C@H]1O.O.O.O.O.O.O.O.O [Ouabain (Octahydrate)],901.7077 RFU
11,O=C(O)CCCC(=O)C(=O)O [Oxoadipic acid],732.376 RFU
12,OC[C@H]1O[C@H](OC[C@H]2OC(O)(CO)[C@@H](O)[C@@H]2O)[C@H](O)[C@@H](O)[C@@H]1O (stereo partly drawn) [Palatinose],803.211 RFU
13,O=c1c(O[C@@H]2O[C@H](CO)[C@H](O)[C@H](O)[C@H]2O[C@@H]2O[C@H](CO)[C@@H](O)[C@H](O)[C@H]2O)c(-c2ccc(O)cc2)oc2cc(O)cc(O)c12 [Panasenoside],1093.409 RFU
14,C=C(C)[C@@H](O)COc1c2ccoc2cc2oc(=O)ccc12 [Pangelin],581.7367 RFU
15,CCCCCCCC(=O)CCc1ccc(O)c(OC)c1 [Paradol],1060.26 RFU and 1109.933 RFU
16,O=C1C=C2C(=CCOC2O)O1 (stereo not drawn) [Patulin],1145.028 RFU
17,CCCCCC/C=C\CCCCCCCCCCCC(=O)O [Paullinic acid],1192.519 RFU
18,CCCCC/C=C/C=C/C(=O)NCC(C)C [Pellitorine],785.2318 RFU and 741.5651 RFU
19,COc1cc(O)c2c(c1)OC(c1ccc(OC)c(O)c1)CC2=O (stereo not drawn) [Persicogenin],1028.526 RFU

# From US12507703B2, “Methods, devices and compositions for preserving human milk” (The Trustees of Princeton University, priority 2023, dated 2025)
